Measured values from patent US20260083864A1, “CONTRAST AGENTS FOR USE IN DIAGNOSTIC COMPUTED TOMOGRAPHY IMAGING” (Bayer Aktiengesellschaft, priority 2022, published 2026).

Experiments:
[1] = Water solubility in aqueous buffer; details: aqueous buffer 10 mM Tris-HCl, pH 7.4, 20° C.
Description: The solid compounds were added stepwise to the buffer solution. More substance is added once all the suspended material is dissolved until an equilibrium between undissolved and dissolved substance is reached. The suspension was mixed using a shaker (Heidolph Reax 2000) and treated 5 min in an ultrasound bath (Bandelin, Sonorex Super RK255H).

[2] = Relaxivity measurements at 1.41 T in water; assay type: physicochemical; details: 37° C., normalized to Gd
Description: Relaxivity measurements at 1.41 T were performed using a MiniSpec mq60 spectrometer (Bruker Analytik, Karlsruhe, Germany) operating at a resonance frequency of 60 MHz and a temperature of 37° C. The T1 relaxation times were determined using the standard inversion recovery (IR) method with a fixed relaxation delay of at least 5×T1. The variable inversion time (TI) was calculated automatically by the standard software of the MiniSpec mq60 (8 steps). The T2 measurements were performed by using a Carr-Purcell-Meiboom-Gill (CPMG) pulse sequence, applying a relaxation delay of at least 5×T1.
Each relaxivity measurement was performed using three different Gd concentrations (3 concentrations between 0.05 and 2 mM). […] Human plasma preparation: For each experiment fresh blood was taken from a volunteer using 10 mL citrate-tubes (Sarstedt S-Monovette 02.1067.001, 10 mL, Citrate). The 10 mL citrate-tubes were carefully inverted 10 times to mix blood and anticoagulant and centrifuged for 15 min at 1811 g at RT (Eppendorf, Centrifuge 5810R).
(§1) The relaxivities n (where i=1, 2) were calculated based on the measured relaxation rates Ri in water and plasma: […]

[3] = Relaxivity measurements at 1.41 T in human plasma; assay type: physicochemical; details: 37° C., normalized to Gd
Description: The T1 relaxation times were determined using the standard inversion recovery (IR) method with a fixed relaxation delay of at least 5×T1. The variable inversion time (TI) was calculated automatically by the standard software of the MiniSpec mq60 (8 steps). The T2 measurements were performed by using a Carr-Purcell-Meiboom-Gill (CPMG) pulse sequence, applying a relaxation delay of at least 5×T1.
Each relaxivity measurement was performed using three different Gd concentrations (3 concentrations between 0.05 and 2 mM).
as §1

OATP1B1 = biological target: T1, OATP1B1 (Homo sapiens, UniProt Q9Y6L6); experiment: Uptake into stable transfected OATP1B1 HEK 293 cells; assay type: cell-based; details: for Uptake into OATP1B1-HEK 293 cells: 40 min incubation, relative to RC1 (Gd-EOB-DTPA); for Inhibition Rifampicine: uptake into OATP1B1-HEK 293 cells
T1 sequence (Q9Y6L6 1-691): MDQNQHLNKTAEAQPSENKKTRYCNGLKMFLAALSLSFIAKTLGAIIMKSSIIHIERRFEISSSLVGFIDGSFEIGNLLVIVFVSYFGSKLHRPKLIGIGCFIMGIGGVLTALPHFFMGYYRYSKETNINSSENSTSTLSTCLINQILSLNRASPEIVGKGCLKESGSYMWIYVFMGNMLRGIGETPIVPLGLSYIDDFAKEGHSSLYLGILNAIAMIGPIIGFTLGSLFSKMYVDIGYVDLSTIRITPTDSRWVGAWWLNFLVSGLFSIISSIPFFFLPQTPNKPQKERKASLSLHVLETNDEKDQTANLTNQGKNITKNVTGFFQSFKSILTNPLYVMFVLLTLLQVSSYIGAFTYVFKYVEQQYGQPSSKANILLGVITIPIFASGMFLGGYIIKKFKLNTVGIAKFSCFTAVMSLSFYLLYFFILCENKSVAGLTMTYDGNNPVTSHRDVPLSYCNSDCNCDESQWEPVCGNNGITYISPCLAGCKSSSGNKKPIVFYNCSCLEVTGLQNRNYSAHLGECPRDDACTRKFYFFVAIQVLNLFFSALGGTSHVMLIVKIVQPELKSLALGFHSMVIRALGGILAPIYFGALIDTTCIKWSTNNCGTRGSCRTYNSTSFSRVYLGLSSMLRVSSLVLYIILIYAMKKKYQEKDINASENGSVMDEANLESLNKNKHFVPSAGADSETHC
Description: (§2) Cryopreserved cells were shortly thawed in water bath and diluted in 10 mL warm culture medium (37° C.). After medium change the cells were grown for 3d in a 25 cm^2 cell culture flask. After 3 to 5d the cells were transferred into 75 cm^2 flasks. […] All test items were prepared in transport buffer at a final concentration of 100 M from stock solutions (180 to 500 mM concentration). The OATP1B1 HEK 293 cells were incubated with test solutions (test item in transport buffer 500 L) for 40 min on a thermoshaker without shaking (PHMP, Fa. Grant Bio). Triplicates were performed for each test item. After incubation the cells were washed with 2 mL of cold PBS (+) buffer (Dulbeccos PBS+, Fa. Gibco). […] As a reference standard Gd-EOB-DTPA (gadoxetate) is used in the same well plate.

OATP1B3 = biological target: T2, OATP1B3 (Homo sapiens, UniProt Q9NPD5); experiment: Uptake into stable transfected OATP1B3 HEK 293 cells; assay type: cell-based; details: for Uptake into OATP1B3-HEK 293 cells: 40 min incubation, relative to RC1 (Gd-EOB-DTPA); for Inhibition Rifampicine: uptake into OATP1B3-HEK 293 cells
T2 sequence (Q9NPD5 1-702): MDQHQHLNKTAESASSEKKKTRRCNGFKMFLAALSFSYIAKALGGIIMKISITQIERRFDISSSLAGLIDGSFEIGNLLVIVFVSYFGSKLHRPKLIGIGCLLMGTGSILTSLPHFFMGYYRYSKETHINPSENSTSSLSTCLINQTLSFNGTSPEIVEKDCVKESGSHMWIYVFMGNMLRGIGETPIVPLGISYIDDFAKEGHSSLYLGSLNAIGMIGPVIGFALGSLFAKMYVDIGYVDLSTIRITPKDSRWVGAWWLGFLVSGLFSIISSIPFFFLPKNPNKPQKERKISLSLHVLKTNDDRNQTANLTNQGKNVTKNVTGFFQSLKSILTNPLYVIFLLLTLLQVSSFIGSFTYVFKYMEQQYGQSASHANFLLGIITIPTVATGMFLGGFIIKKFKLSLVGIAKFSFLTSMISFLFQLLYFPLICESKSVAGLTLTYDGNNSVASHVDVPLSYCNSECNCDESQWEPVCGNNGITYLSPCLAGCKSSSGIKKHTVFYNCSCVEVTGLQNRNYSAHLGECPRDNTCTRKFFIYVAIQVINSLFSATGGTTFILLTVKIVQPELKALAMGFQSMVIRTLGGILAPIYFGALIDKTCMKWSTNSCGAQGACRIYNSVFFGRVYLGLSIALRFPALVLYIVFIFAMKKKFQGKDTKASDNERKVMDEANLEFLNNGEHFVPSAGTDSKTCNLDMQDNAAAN
Description: as §2, with “100 µM” for “100 M”, “The OATP1B3” for “The OATP1B1”, “500 μL)” for “500 L)”

[4] = Partition coefficient (log P butanol/buffer); assay type: physicochemical; details: 1-butanol / 50 mM Tris-HCl, pH 7.4, room temperature
[5] = system: freshly isolated rat hepatocytes; experiment: Uptake into freshly isolated rat hepatocytes; details: for Uptake rat hepatocytes: 100 μmol Gd/L, 10 min, 37° C., relative to RC1 (Gd-EOB-DTPA); for Inhibition Rifampicine: rat hepatocyte uptake, test item and Rifampicine 1:1, each 100 μM
Description: After incubation the adherent hepatocytes were washed once with 37° C. Hepes carbonate transport buffer (500 μL/well). The test items and RC1 were prepared from stock solutions (180 to 500 mM concentration) in Hepes carbonate transport buffer at pH 7.4 to reach a final concentration of 100 μmol Gd/L. The specific uptake of the test item or RC1 into rat hepatocytes via OATP1B1 and OATP1B3 was challenged using a known OATP1B1/1B3 inhibitor (Rifampicine, Fa. Sigma R3501, test item and inhibitor 1:1 each 100 μM final concentration). The prepared rat hepatocyte plates were incubated with test solutions (500 μL/well) at 37° C. for 10 min using a thermoshaker (Fa. Grant Bio, PHMP). Triplicates were performed for each test item. After incubating the cells were washed once with cold PBS buffer (Fa. Gibco, Dulbeccos PBS (+)). After washing the intact hepatocytes were lysed by addition of 500 μL cold 0.01% Triton-X 100 in Millipore water for 1 h. […] As a reference standard RC1 is used in the same well plate. The hepatocyte uptake of the test compound is calculated relative to RC1 (resulting in the unit % of RC1).

Structure (SMILES)	Solubility [1]	r1 water [2]	r1 human plasma [3]	Uptake into OATP1B1-HEK 293 cells (OATP1B1)	Inhibition Rifampicine (OATP1B1)	Uptake into OATP1B3-HEK 293 cells (OATP1B3)	Inhibition Rifampicine (OATP1B3)	Log P (partition coefficient butanol/buffer) [4]	Uptake rat hepatocytes [5]	Inhibition Rifampicine [5]
O=C([O-])CN1CCN(C(Cc2ccc(OCC(F)(F)C(F)F)cc2)C(=O)O)CCN(CC(=O)[O-])CCN([C@@H](CO)C(=O)[O-])CC1.[Gd+3] (mixture of isomers) [Example 33, gadolinium (2S)-2-[4,10-bis(carboxylatomethyl)-7-{1-carboxy-2-[4-(2,2,3,3-tetrafluoropropoxy)phenyl]ethyl}-1,4,7,10-tetraazacyclododecan-1-yl]-3-hydroxypropanoate]	>29 mM	4.2 L/mmol/s	11.7 L/mmol/s	367 % of RC1	88 % inhibition	71 % of RC1	98 % inhibition	−0.55	82 % of RC1	94 % inhibition
CCOCCOCCOc1ccc(C[C@@H](C(=O)O)N2CCN(CC(=O)[O-])CCN(CC(=O)[O-])CCN(CC(=O)[O-])CC2)cc1.[Gd+3] [Example 3, gadolinium 2,2′,2″-{10-[(1S)-1-carboxy-2-{4-[2-(2-ethoxyethoxy)ethoxy]phenyl}ethyl]-1,4,7,10-tetraazacyclododecane-1,4,7-triyl}triacetate]	>331 mM	4.3 L/mmol/s	6.5 L/mmol/s	63 % of RC1	29 % inhibition	18 % of RC1	89 % inhibition	−1.61	47 % of RC1	96 % inhibition
CCOCCOCCOCCOc1ccc(CC(C(=O)O)N2CCN(CC(=O)[O-])CCN(CC(=O)[O-])CCN(CC(=O)[O-])CC2)cc1.[Gd+3] (stereo not shown) [Example 10, gadolinium 2,2′,2″-{10-[1-carboxy-2-(4-{2-[2-(2-ethoxyethoxy)ethoxy]ethoxy}phenyl)ethyl]-1,4,7,10-tetraazacyclododecane-1,4,7-triyl}triacetate]	>272 mM	4.5 L/mmol/s	6.6 L/mmol/s	87 % of RC1	43 % inhibition	13 % of RC1	95 % inhibition	−1.70	49 % of RC1	90 % inhibition
CCOCCOCCOCCOc1ccc(CC(C(=O)O)N2CCN(CC(=O)[O-])CCN(C(COC)C(=O)[O-])CCN(CC(=O)[O-])CC2)cc1.[Gd+3] (stereo not shown) [Example 13, gadolinium 2-{7-[1-carboxy-2-(4-{2-[2-(2-ethoxyethoxy)ethoxy]ethoxy}phenyl)ethyl]-4,10-bis(carboxylatomethyl)-1,4,7,10-tetraazacyclododecan-1-yl}-3-methoxypropanoate]	67 mM	5.2 L/mmol/s	7.0 L/mmol/s	109 % of RC1	30 % inhibition	31 % of RC1	93 % inhibition	−1.53	49 % of RC1	86 % inhibition
